Patent US20120053130A1, “COMPOSITION FOR ENHANCING ABSORPTION OF A DRUG AND METHOD” (Bristol-Myers Squibb Company, priority 2010, published 2012)

Legend:
[1] = DDAVP permeation across Calu-3 cells on Transwell filters; type: in vitro ADME, human; conditions: human
Description: (§1) Papp values are labeled on top of the bars.
(§2) Inclusion of LPC further boosted the transport of DDAVP.

Calu-3 cells [2] = assay: TEER measurement (cell integrity and reversibility); type: cell-based, human; conditions: for TEER after 2 hr (% initial): Phosphatidylcholine (Lecithin) Treatment
Description: The asterisk (delete scatters with) (*) represent (delete marker present) those samples where TEER recovered to the original level within 12 hrs after washout of the treatment.
Transepithelial electrical resistance (TEER) measures the integrity of the epithelial barrier. […] Return of the TEER values to initial levels indicates recovery to baseline barrier properties. TEER measurements were done in confluent highly resistant Calu-3 cells cultured in Transwell filters with handheld STX-2 electrodes connected to EVOM Voltohmmeter. […] After the removal of apical treatment, TEER recovered to the original values.

Calu-3 cells [3] = assay: Alamar Blue acute cytotoxicity assay; type: cell-based, human
Description: FIG. 2 depicts an Alamar Blue Assay—Black bar indicates the % of the cell survival after 2 hrs treatment of LPC at 0-0.25%; gray bar indicates the combination of LPC with 0.5% of C971P.
This assay is based on the ability of live cells to enzymatically reduce Alamar blue dye which indicates the relative percentage of cells that survive the exposure to the various treatments. Calu-3 cells exposed to buffer for 2 hr were used as the positive control with 100% cell survival.

[4] = Intra-nasal DADLE absorption in rabbits; type: in vivo, rabbit; conditions: DADLE 1 mg/kg intra-nasal via syringe microsprayer
Description: Intra-nasal delivery of the model pentapepdide DADLE in water, C971P, LPC or C971P/LPC formulation was studied in rabbits. […] The C971P/LPC formulation enhanced DADLE absorption by >50% compared to LPC alone.

Calu-3 cells [5] = assay: DDAVP permeation across Calu-3 cells on Transwell filters; type: in vitro ADME, human; conditions: for DDAVP Permeability: Phosphatidylcholine (Lecithin) Treatment
Description: as §1, §2

For NC(=O)CC[C@@H]1NC(=O)[C@H](Cc2ccccc2)NC(=O)[C@H](Cc2ccc(O)cc2)NC(=O)CCSSC[C@@H](C(=O)N2CCC[C@H]2C(=O)N[C@H](CCCN=C(N)N)C(=O)NCC(N)=O)NC(=O)[C@H](CC(N)=O)NC1=O [DDAVP, 1 deamino-8-D-arginin-vasopressin], the Papp A→B [1] was 0.04 ± 0.003 ×10⁻⁶ cm/s.
With L-α-lysophosphatidylcholine [LPC] the “change in TEER on treatment” value (Calu-3 cells [2]; 2 hours of treatment) was “dramatic drop in TEER”, the cell survival (Calu-3 cells [3]; 0.05% LPC, 2 hr, without or with 0.5% C971P) was “About 82%” and the cell survival (Calu-3 cells [3]; 0.1% LPC, 2 hr, without or with 0.5% C971P) was 41%. The “cell survival, result in words” value (Calu-3 cells [3]; LPC 0-0.25%, 2 hr, without or with 0.5% C971P) was “dose-dependent reduction in survival” and the “DADLE exposure relative to water control” value [4] was 2.4 times.
With CCCCCCCCCC(=O)[O-].[Na+] [sodium caprate] the “effect of Carbopol 971P on acute cytotoxicity of the enhancer” value (Calu-3 cells [3]; Alamar Blue cytotoxicity assay in Calu-3 cells) was “failed to reduce the acute cytotoxicity”.
For “Phosphatidylcholine [Phosphatidylcholine (Lecithin)]”, the “TEER after 2 hr (% initial)” value (Calu-3 cells [2]; 1 mM) was “No change”, the “TEER after 2 hr (% initial)” value (Calu-3 cells [2]; 2 mM) was “No change” and the “TEER after 2 hr (% initial)” value (Calu-3 cells [2]; 5 mM) was “No change”. For the same compound, the “DDAVP permeability enhancement and TEER drop, result in words” value (Calu-3 cells [5]; Calu-3 cells, TEER 2 hr after exposure) was “failed to show any measurable enhancement or TEER drop”, the “DDAVP Permeability” value (Calu-3 cells [5]; 1 mM) was 0.45 ± 0.03 nm/s and the “DDAVP Permeability” value (Calu-3 cells [5]; 2 mM) was 0.44 ± 0.03 nm/s. The “DDAVP Permeability” value (Calu-3 cells [5]; 5 mM) was 0.44 ± 0.04 nm/s.
